Columns and labels:
Test in all cases: normalised viability (% of control), CellTiter-Blue; higher = more viable cells (about 100 = DMSO control)
CAL-85-1 [1] = conditions: 3000 nM; incubation time: 72 h
Procedure, shortened: (§1)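 After 72 h on compound-loaded 384-well plates, breast cancer cell lines received 2.5 µl CellTiter-Blue reagent for 2 h at 37 °C. Fluorescence at 560/590 nm was scaled per plate so that vehicle was 100 and a positive kill control was 0. The value stands for normalised viability at a single listed concentration of the series.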

CAL-148 [2] = conditions: 3000 nM; incubation time: 72 h
Procedure, shortened: as §1

DU-4475 [3] = conditions: 3000 nM; incubation time: 72 h
Procedure, shortened: as §1

MDA-MB-453 [4] = conditions: 3000 nM; incubation time: 72 h
Procedure, shortened: as §1

CAL-85-1 [5] = conditions: 10000 nM; incubation time: 72 h
Description: (§2)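 DSRT, CellTiter-Blue viability, 72 h incubation. Signal is normalised to DMSO and benzethonium chloride controls. Value is the normalised response at dose 9.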

CAL-148 [6] = conditions: 10000 nM; incubation time: 72 h
Description: as §2

HDQ-P1 = conditions: 10000 nM; incubation time: 72 h
Description: as §2

DU-4475 [7] = conditions: 10000 nM; incubation time: 72 h
Description: as §2

MDA-MB-453 [8] = conditions: 10000 nM; incubation time: 72 h
Description: as §2

CAL-51 [9] = conditions: 10000 nM; incubation time: 72 h
Description: as §2

MFM-223 = conditions: incubation time: 72 h
Procedure, shortened: as §1

MDA-MB-468 = conditions: incubation time: 72 h
Procedure, shortened: as §1

SK-BR-3 = conditions: incubation time: 72 h
Procedure, shortened: as §1

CAL-85-1 [10] = conditions: incubation time: 72 h
Procedure, shortened: as §1

BT-474 = conditions: incubation time: 72 h
Procedure, shortened: as §1

CAL-120 = conditions: incubation time: 72 h
Procedure, shortened: as §1

DU-4475 [11] = conditions: incubation time: 72 h
Procedure, shortened: as §1

HCC1599 = conditions: incubation time: 72 h
Procedure, shortened: as §1

HCC1937 = conditions: incubation time: 72 h
Procedure, shortened: as §1

BT-549 = conditions: incubation time: 72 h
Procedure, shortened: as §1

MDA-MB-436 = conditions: incubation time: 72 h
Procedure, shortened: as §1

MDA-MB-231 = conditions: incubation time: 72 h
Procedure, shortened: as §1

HCC1143 = conditions: incubation time: 72 h
Procedure, shortened: as §1

MDA-MB-453 [12] = conditions: incubation time: 72 h
Procedure, shortened: as §1

CAL-51 [13] = conditions: incubation time: 72 h
Procedure, shortened: as §1

Hs578T = conditions: incubation time: 72 h
Procedure, shortened: as §1

Oc1ncc(N(CCCl)CCCl)c(O)n1 [Uracil mustard]
Conditions	normalised viability [%]
CAL-51 [9]	91.6
CAL-85-1 [1]	93.8
CAL-85-1 [5]	93.9
CAL-148 [2]	113
CAL-148 [6]	105
DU-4475 [3]	105
DU-4475 [7]	94.9
HDQ-P1	110
MDA-MB-453 [4]	92.8
MDA-MB-453 [8]	104

normalised viability [%]
Conditions	3 nM	10 nM	30 nM	100 nM	1000 nM	10000 nM
BT-474	–	122	–	–	120	116
BT-549	–	93.4	–	–	103	90.6
CAL-51 [13]	96.7	–	96.7	95.7	–	–
CAL-85-1 [10]	94.2	–	94.2	96.7	–	–
CAL-120	–	88.3	–	–	87.5	82.5
DU-4475 [11]	92	–	89.5	101	–	–
HCC1143	–	78.4	–	–	84.8	92.6
HCC1599	–	82.1	–	–	78.4	92.7
HCC1937	–	143	–	–	82.4	66.7
Hs578T	–	106	–	–	100	80.3
MDA-MB-231	–	100	–	–	103	89.5
MDA-MB-436	–	103	–	–	76.6	97.8
MDA-MB-453 [12]	103	–	107	101	–	–
MDA-MB-468	–	109	–	–	97.5	85.7
MFM-223	–	99.2	–	–	95.9	99.8
SK-BR-3	–	109	–	–	95.1	79.8

CCCCC(=O)OCC(=O)[C@]1(O)Cc2c(O)c3c(c(O)c2[C@@H](O[C@H]2C[C@H](NC(=O)C(F)(F)F)[C@H](O)[C@H](C)O2)C1)C(=O)c1c(OC)cccc1C3=O [Valrubicin]
Conditions	normalised viability [%]
CAL-51 [9]	2.32
CAL-85-1 [1]	31.2
CAL-85-1 [5]	18.6
CAL-148 [2]	0.71
CAL-148 [6]	1.24
DU-4475 [3]	-1.61
DU-4475 [7]	-0.99
HDQ-P1	52.9
MDA-MB-453 [4]	18.3
MDA-MB-453 [8]	16.2

normalised viability [%]
Conditions	3 nM	10 nM	30 nM	100 nM	1000 nM	10000 nM
BT-474	–	114	–	–	74.9	55.1
BT-549	–	82.4	–	–	65.1	47.5
CAL-51 [13]	93.1	–	80	55.3	–	–
CAL-85-1 [10]	80.8	–	81.8	81.5	–	–
CAL-120	–	96.1	–	–	31.8	15.6
DU-4475 [11]	90.1	–	55.4	49.8	–	–
HCC1143	–	97.2	–	–	47.7	24.9
HCC1599	–	79.7	–	–	67.4	40.2
HCC1937	–	96.5	–	–	30.7	19.7
Hs578T	–	98.8	–	–	55.5	22
MDA-MB-231	–	84.8	–	–	45.6	19.4
MDA-MB-436	–	111	–	–	84.9	42.8
MDA-MB-453 [12]	104	–	93.2	99.3	–	–
MDA-MB-468	–	105	–	–	42	30.6
MFM-223	–	92.1	–	–	72.6	24.2
SK-BR-3	–	91.3	–	–	25.9	9.82

CCCS(=O)(=O)Nc1ccc(F)c(C(=O)c2c[nH]c3ncc(-c4ccc(Cl)cc4)cc23)c1F [Vemurafenib]
Conditions	normalised viability [%]
CAL-51 [9]	103
CAL-85-1 [1]	75.7
CAL-85-1 [5]	78.3
CAL-148 [2]	89.1
CAL-148 [6]	94.1
DU-4475 [3]	4.66
DU-4475 [7]	-0.32
HDQ-P1	68.6
MDA-MB-453 [4]	87.3
MDA-MB-453 [8]	75.5

normalised viability [%]
Conditions	3 nM	10 nM	30 nM	100 nM	1000 nM	10000 nM
BT-474	–	106	–	–	120	107
BT-549	–	96.4	–	–	105	57.3
CAL-51 [13]	102	–	95.4	92.9	–	–
CAL-85-1 [10]	92.8	–	84.6	87.2	–	–
CAL-120	–	92.6	–	–	91.8	71.7
DU-4475 [11]	94.5	–	85.1	68.2	–	–
HCC1143	–	95.8	–	–	102	87.4
HCC1599	–	77.6	–	–	87.6	90.9
HCC1937	–	109	–	–	101	67.7
Hs578T	–	112	–	–	129	45.9
MDA-MB-231	–	91.5	–	–	92.4	100
MDA-MB-436	–	104	–	–	97.3	78.1
MDA-MB-453 [12]	96.5	–	93.1	80.1	–	–
MDA-MB-468	–	113	–	–	107	63.5
MFM-223	–	87.9	–	–	95.4	85.6
SK-BR-3	–	88.5	–	–	93.8	95

Source: the supplement of paper PMC4862054
